Counter-ions that a name gives are not always drawn. Like-named read-outs stand apart in the source and are kept apart here.
Target: T1, dopamine receptor (Bos taurus, UniProt P20288)
T1 construct: from tissue
Experiment: 3H-haloperidol receptor binding assay (HRBA)
Conditions: for inhibition at 0.01 µM / inhibition at 0.1 µM / inhibition at 0.001 µM: read-out: inhibition of 3H-haloperidol binding; for inhibition at 0.001 µM: 1 n mole concentration
Excerpt: The compounds of this invention are useful because of their valuable pharmacological properties. […] As with other known neuroleptics, the compounds of this invention readily displace ^3 H-haloperidol from dopamine receptor binding sights in the ^3 H-haloperidol receptor binding assay (HRBA). […] The HRBA screen is described by I. Creese, D. R. Burt and S. H. Snyder, Science 142: 480 (1976) and by B. Seeman, T. Lee, M. Chani-Wong and K. Wong, Nature 261: 717 […].

T1 sequence (P20288 whole entry): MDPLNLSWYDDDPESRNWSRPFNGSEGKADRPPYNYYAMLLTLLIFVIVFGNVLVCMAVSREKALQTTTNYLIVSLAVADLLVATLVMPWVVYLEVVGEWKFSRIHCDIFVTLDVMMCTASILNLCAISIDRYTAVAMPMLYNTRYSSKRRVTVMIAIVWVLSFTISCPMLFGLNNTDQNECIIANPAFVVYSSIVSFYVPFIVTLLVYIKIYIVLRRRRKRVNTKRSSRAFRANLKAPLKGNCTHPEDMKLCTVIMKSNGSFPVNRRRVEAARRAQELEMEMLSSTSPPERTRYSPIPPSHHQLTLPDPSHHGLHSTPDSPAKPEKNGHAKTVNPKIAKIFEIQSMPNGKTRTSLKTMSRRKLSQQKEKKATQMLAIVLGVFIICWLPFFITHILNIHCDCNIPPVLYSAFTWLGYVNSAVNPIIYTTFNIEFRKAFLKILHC

Compound | inhibition at 0.01 µM | inhibition at 0.1 µM | inhibition at 0.1 µM (100 n moles concentration) | inhibition at 0.01 µM (10 n moles concentration) | other results
c1ccc(OC2CCN(CCCN(c3ccccc3)c3ccccc3)CC2)cc1 [Example 22, 4-Phenoxy-N,N-diphenyl-1-piperidinepropanamine ethanedioate] | ~7% | ~59% |  |  | 
Fc1ccc(N2CCN(CCCN(c3ccccc3)c3ccccc3)CC2)cc1 [Example 31, 4-(4-Fluorophenyl)-N,N-diphenyl-1-piperazinepropanamine] |  |  | ~12% |  | inhibition of 3H-haloperidol binding (10 n moles concentration): no inhibition
CCCSc1ccccc1N1CCN(CCCN(c2ccccc2)c2ccccc2)CC1 [Example 34, N,N-diphenyl-4-[2-(propylthio)phenyl]-1-piperazinepropanamine ethanedioate] | ~6% | ~64% |  |  | 
Cl.Cl.Fc1ccc(N(CCCN2CCN(c3ccccc3)CC2)c2ccc(F)cc2)cc1 [Example 37, N,N-bis(4-fluorophenyl)-4-phenyl-1-piperazinepropanamine dihydrochloride] |  | ~37% |  |  | inhibition of 3H-haloperidol binding (10 n moles concentration): no inhibition
O=c1[nH]c2ccccc2n1C1CCN(CCCN(c2ccc(F)cc2)c2ccccc2F)CC1 [Example 14, 1,3-Dihydro-1-[1-[3-[(4-fluorophenyl)-(2-fluorophenyl)amino]propyl]-4-piperidinyl]-2H-benzimidazol-2-one] |  |  | ~100% | ~92% | inhibition at 0.001 µM: ~56%
OC1(c2ccc(Cl)cc2)CCN(CCCN(c2ccc(F)cc2)c2ccc(F)cc2)CC1 [Example 20, 1-(3-[Bis(4-fluorophenyl)amino]propyl)-4-(4-chlorophenyl)-4-piperidinol ethanedioate] | ~74% | ~100% |  |  | 
Cc1cc2[nH]c(=O)n(C3CCN(CCCN(c4ccccc4)c4ccccc4)CC3)c2cc1C [Example 13, 1-[1-(3-[Diphenylamino]propyl)-4-piperidiyl]-1,3-dihydro-5,6-dimethyl-2H-benzimidazol-2-one] |  |  | ~93% | ~53% | 
O=C1NCN(c2ccc(F)cc2)C12CCN(CCCN(c1ccc(F)cc1)c1ccc(F)cc1)CC2 [Example 5, 8-[3-[Bis-(4-fluorophenyl)amino]propyl]-1-(4-fluorophenyl)-1,3,8-triazaspiro[4,5]decan-4-one] | ~84% | ~100% |  |  | 
Cc1ccc(N2CNC(=O)C23CCN(CCCN(c2ccccc2)c2ccccc2)CC3)cc1 [Example 3, 8-[3-(Diphenylamino)propyl]-1-(4-methylphenyl)-1,3,8-triazaspiro[4,5]decan-4-one] | ~71% | ~87% |  |  | 
FC(F)(F)c1cccc(OC2CCN(CCCN(c3ccccc3)c3ccccc3)CC2)c1.O=C(O)C(=O)O [Example 24, N,N-diphenyl-4-[3-(trifluoromethyl)phenoxy]-1-piperidinepropanamine ethanedioate] |  | ~8% |  |  | inhibition of 3H-haloperidol binding (10 n moles concentration): no inhibition
Fc1ccc(N(CCCN2CCC(n3c(=S)[nH]c4ccccc43)CC2)c2ccc(F)cc2)cc1 [Example 8, 1-[1-(3-[Bis(4-fluorophenyl)amino]propyl)-4-piperidinyl]-1,3-dihydro-2H-benzimidazole-2-thione] |  |  | ~89% | ~28% | 
COc1ccc(N2CNC(=O)C23CCN(CCCN(c2ccccc2)c2ccccc2)CC3)cc1 [Example 4, 8-[3-(Diphenylamino)propyl]-1-(4-methoxyphenyl)-1,3,8-triazaspiro[4,5]decan-4-one] | ~67% | ~98% |  |  | 
Clc1ccc(OC2=CCN(CCCN(c3ccccc3)c3ccccc3)CC2)cc1Cl.O=C(O)C(=O)O [Example 26, 4-(3,4-Dichlorophenoxy)-3,6-dihydro-N,N-diphenyl-1(2H)-pyridinepropanamine ethanedioate] |  | ~26% |  |  | inhibition of 3H-haloperidol binding (10 n moles concentration): no inhibition
Cc1cc2[nH]c(=O)n(C3CCN(CCCN(c4ccc(F)cc4)c4ccc(F)cc4)CC3)c2cc1C [Example 17, 1-[1-[3-[Bis-(4-fluorophenyl)amino]propyl]-4-piperidyl]-1,3-dihydro-5,6-dimethyl-2H-benzimidazol-2-one] |  |  | ~100% | ~85% | inhibition at 0.001 µM: ~29%
OC(c1ccccc1)C1CCN(CCCN(c2ccccc2)c2ccccc2)CC1 (stereo not drawn) [Example 43, 1-[3-(Diphenylamino)propyl]-alpha-phenyl-4-piperidine methanol.] |  |  | ~18% |  | inhibition of 3H-haloperidol binding (10 n moles concentration): no inhibition
Fc1cccc(C2=CCN(CCCN(c3ccccc3)c3ccccc3)CC2)c1.O=C(O)C(=O)O [Example 40, 4-(3-Fluorophenyl)-1,2,3,6-tetrahydro-N,N-diphenyl-1-pyridinepropanamine ethanedioate] |  | ~23% |  |  | inhibition of 3H-haloperidol binding (10 n moles concentration): no inhibition
Cc1cc2c(cc1C)n(C1CCN(CCCN(c3ccccc3)c3ccccc3)CC1)c(=O)n2C [Example 16, 1-[1-([3-Diphenylamino]propyl)-4-piperidinyl]-1,3-dihydro-3,5,6-trimethyl-2H-benzimidazol-2-one butenedioate] |  |  | ~60% | ~6% | 
O=c1[nH]c2ccccc2n1C1CCN(CCCN(c2ccccc2)c2ccc([N+](=O)[O-])cc2)CC1 [Example 10, 1,3-Dihydro-1-[1-(3-[(4-nitrophenyl)phenylamino]propyl)-4-piperidinyl]-2H-benzimidazol-2-one hydrochloride] | ~17% | ~75% |  |  | 
OCCN1CCN(CCCN(c2ccc(F)cc2)c2ccc(F)cc2)CC1 [Example 36, 4-[3-[Bis(4-fluorophenyl)amino]propyl]-1-piperazineethanol dihydrochloride] | ~21% | ~62% |  |  | 
O=C(c1ccc(Cl)cc1)C1CCN(CCCN(c2ccc(F)cc2)c2ccc(F)cc2)CC1 [Example 44, [1-[3-[Bis(4-fluorophenyl)amino]propyl]-4-piperidinyl]-(4-chlorophenyl)methanone ethanedioate] | ~8% | ~69% |  |  | 
FC(F)(F)c1cccc(OC2=CCN(CCCN(c3ccccc3)c3ccccc3)CC2)c1 [Example 23, 3,6-Dihydro-N,N-diphenyl-4-[(3-trifluoromethyl)phenoxy]-1(2H)-pyridinepropanamine ethanedioate] |  |  | ~24% | ~6% | 
c1ccc(N(CCCN2CCC3(CC2)OCCO3)c2ccccc2)cc1 [Example 45, N,N-diphenyl-1,4-dioxo-8-azaspiro[4,5]decane-8-propanamine ethanedioate.] |  |  | ~26% | ~10% | 
Cc1cccc(C2CCN(CCCN(c3ccccc3)c3ccccc3)CC2)c1 [Example 41, N,N-diphenyl-4-[3-methylphenyl]-1-piperidinepropanamine butenedioate] |  |  | ~84% | ~25% | 
C1=C(Oc2ccccc2)CCN(CCCN(c2ccccc2)c2ccccc2)C1 [Example 21, 3,6-Dihydro-4-phenoxy-N,N-diphenyl-1(2H)-pyridinepropanamine ethanedioate.] |  |  | ~48% | ~8% | 
O=c1[nH]c2ccccc2n1C1CCN(CCCN(c2ccc(F)cc2)c2ccc(F)cc2)CC1 [Example 6, 1-(1[3-[Bis(4-fluorophenyl)amino]propyl]-4-piperidyl)-1,3-dihydro-2H-benzimidazol-2-one] |  |  |  | ~78% | inhibition at 0.001 µM: ~50%

Source: patent publication US4292321A, “1,3,8-Triazaspirodecane-4-ones, pharmaceutical compositions thereof and method of use thereof” (Warner-Lambert Company, priority 1980, dated 1981)
